Test results from patent US11078495B2, “Methods and compositions for integration defective lentiviral vectors” (The University of North Carolina at Chapel Hill, priority 2015, dated 2021).

Tested on: human embryo fibroblasts (HEFs)
Experiment: Normalized luciferase expression from IDLV (pTK993) in human embryo fibroblasts treated with Velcade and/or sodium butyrate
Assay type: cell-based
Details: sample i: HEFs, Velcade 25 nM for 24 hours at transduction, sodium butyrate 5 mM for 48 hours from day 19; harvested 21 days post transduction; normalized to protein content and VCN
Excerpt: FIG. 7: A short-term treatment of host cells with proteasome inhibitor (velcade) at the time of IDLV transduction results in long-term sensitivity of IDLV expression to HDAC inhibitor (sodium butyrate) treatment. A) Depiction of a conventional self-inactivating HIV-1 vector (pTK993) from which the firefly luciferase is expressed under the control of a CMV promoter. […] B) To characterize the short- and long-term effects of HDAC and proteasome inhibitors on IDLV gene expression, human embryo fibroblasts (HEFs) were transduced with IDLV carrying the firefly luciferase cDNA under the control of a CMV promoter. HEF transduction was carried out either in the absence (samples a, d, g and h) or in the presence of Velcade (25 nM) for 24 hours (samples b, e and i) or sodium butyrate (5 mM) for 48 hours (samples c and f). At day 19 post transduction, sample g was treated with Velcade (25 nM) for 24 hours, while samples h and i were treated with sodium butyrate (5 mM) for 48 hours. Cell samples were harvested at either 48 hours (samples a-c) or 21 days post-transduction and analyzed for luciferase expression, which was normalized to protein content and vector copy number per diploid cell genome (VCN). The readout of normalized luciferase expression is shown above each sample. […]

For `CC(C)C[C@H](NC(=O)[C@H](Cc1ccccc1)NC(=O)c1cnccn1)B(O)O` [Velcade], the “fold of increase in IDLV expression (normalized luciferase) relative to sample-control” value was 75 fold.
